For `S=C(Nc1ccc(Cl)cc1)NC12CC3CC(CC(C3)C1)C2`, the melting point was determined as 185 °C.
With `COC(=O)C1C(=O)Nc2cccc(C(F)(F)F)c2CC1c1ccc(OC)cc1` (stereo not given) the figure was 214 to 216 °C.
As to `COc1cc2c(cc1OC)C(Oc1ccc(C(F)(F)F)cc1)CN(CC#N)CC2` (stereo not given), the melting point was 93 to 94 °C.
With `COCCCn1c2cc(C)ccc2n2c(C)nnc12` the figure was 113 to 114 °C.
With `Cc1nc2ccccc2n1-c1ccc(C(=O)N(C)C2CCNCC2)cc1` the figure was 219 to 221 °C; with `CCN(CC)N(C(C)=O)c1nc2cc3nc(N(C(C)=O)N4CCCCC4)sc3cc2s1`, 280 to 282 °C.
Consider `COC(C(N)=S)c1ccccn1` (stereo not given), for which the melting point lay in the range of 157 to 159 °C.
In the case of `O=C(N(Cc1cccnc1)c1ccc(F)cc1)C(F)(F)F` it was 97 to 98 °C; in that of `Cc1nn(-c2cccc(C(F)(F)F)c2)c(C)c1CC(=O)O`, 83 to 85 °C; in that of `CN(C1=NCCO1)c1ccc(C(O)(C(F)(F)F)C(F)(F)F)cc1`, 188 to 190 °C.
`CCOC(=O)c1cnc2nc3ccccc3n2c1O` came in with a melting point of 309 to 310 °C.
For the compound `CCCCC(Cc1ccc(OCCN(CC)CC)cc1)(C(=O)NO)S(=O)(=O)c1ccc(OC)cc1` (stereo not given), the melting point worked out at 67 °C.
With `COc1cccc2c1nc(C(F)F)n2-c1nc(N2CCOCC2)c2cnn(C3CCN(S(=O)(=O)CCl)CC3)c2n1` the figure was 250 to 253 °C; with `COc1cccc(CN2CCc3cc(O)c(OC)cc3C2)c1`, 161 to 162 °C.
In the case of `C1=C(c2ccc(-n3ccnc3)cc2)CCNC1` it was 150 to 153 °C; in that of `C[C@H](C(=O)O)n1nc(O)c2[nH]c3cc(Cl)ccc3c(=O)c2c1=O`, above 275 °C.
With `N[C@@H]1CN2CCC1CC2` the figure was 118 to 121 °C; with `O=C(O)CCC/C=C/c1ccc2ccccc2n1`, 142 to 144 °C.
For `COc1ccc(C(=O)c2ccccc2)cc1Cl`, the melting point is 87 °C.
With `CCN1C(=O)C(C(=O)c2ccco2)c2cc(Cl)cnc21` (stereo not given) the figure was 162 to 163 °C; with `CC(=O)OCCOc1cnc(-c2ncc([N+](=O)[O-])n2C)nc1`, 148 to 150 °C; with `COc1cc2c(O)c(S(=O)(=O)N(C)C)cnc2cc1C`, 295 to 297 °C.
In the case of `CCOCCNC(=O)COc1ccn2nc(-c3ccccc3)c(-c3ccc(=O)n(C(C)C)n3)c2c1` it was 126 to 128 °C; in that of `C[C@H](C/C=C/C=C/C(C)(C)O)[C@H]1CC[C@H]2[C@@H](O)CCC[C@]12C`, 110 to 112 °C.
With `CC(Cl)CC(C)Oc1ccc(-c2ccc(C(=O)Oc3ccc(C#N)cc3)cc2)cc1` (stereo not given) the figure was 104 °C.
With `O=C(Oc1ccc(CCN(F)F)cc1)c1ccccc1`, the melting point lay within 67 to 67.5 °C.
For `O=C(NCCN1CCCC1)c1ccc(=O)n(Cc2ccc(-c3ccccc3)cc2)c1`, the melting point fell in the range of 142 to 152 °C.
In turn, `Cc1[nH]c(=O)c2c(N)c([N+](=O)[O-])ccc2c1C` came in with a melting point above 300 °C.
With `O=C(Cl)c1ccc(C#Cc2ccccc2F)o1` the figure was 96 to 98 °C.
Compound `CCN1C(=O)C(C)(C)C(=O)N(C)c2cc(CN(CCn3ccc4oc(C)cc4c3=O)Cc3nc4ccccc4n3C)ccc21` showed a melting point of 127 to 133 °C.
With `CC(=O)/C=C(\C)c1ccc(C2CCCC2)cc1` the figure was 33 to 33.5 °C; with `COc1ccc(CNC(=O)C(=O)NCCc2cccs2)c(OC)c1`, 146 to 147 °C.
On to `COCCCc1nc(C(F)F)ccc1C(=O)C1C(=O)C2CCC(C2)C1=O` (stereo not given), for which the melting point lay in the range of 45 to 46 °C.
With `Nc1ccn(C2CC(N)C(CO)O2)c(=O)n1` (stereo not given) the figure was 207 °C; with `O=C(Nc1ccc2nc(CN3CCCC3)ccc2c1)[C@H]1CO[C@H](c2ccc(Cl)cc2)OC1`, 244 to 246 °C; with `CNc1nc(C)c(C(=O)C(C#N)=CN(C)C)s1`, 245 to 246 °C.
With `OCc1cccc(-c2ccc3nc(-c4ccc(Cl)cc4)cn3c2)c1` the figure was 181 to 182 °C; with `N#Cc1ccc(CN2CCN(c3cc(-c4ccccc4)c4ccc(=O)ccn34)CC2)cc1`, 196 °C; with `CC(CO)NC(=O)NCCCCC1CCSS1` (stereo not given), 87 to 89 °C.
With `CCCOc1ccc(S(=O)(=O)N2CCN(CC)CC2)cc1-c1nc2cc(Cl)c([N+](=O)[O-])cc2c(=O)[nH]1` the figure was 239 to 241 °C; with `Cc1ccccc1-c1c(C(=O)O)oc2ccc(Cl)cc12`, 212 to 214 °C; with `N#Cc1cccc(C2=Nc3ccc(-c4cccc(F)c4)cc3NC(=O)C2)c1`, 232 to 235 °C.
Compound `CC(=O)OCCOc1ccc(C=Cc2ccc(S(C)(=O)=O)cc2)cc1` yielded a melting point of 175 to 177 °C.
With `COC(=O)c1sc(OC)c(Br)c1O` the figure was 107 to 109 °C; with `CC(=O)OC1CSC(Oc2ccc(-c3ccnc(F)c3)nc2)C(OC(C)=O)C1OC(C)=O` (stereo not given), 179 °C; with `CC(c1ccc(-c2ccccc2)c(F)c1)c1csc(NC(=S)Nc2ccccc2)n1` (stereo not given), 176 to 177 °C.
Take `COc1ccc(COC(=O)N[C@@H](Cc2ccccc2)C(=O)O)cc1`: the melting point was 87 to 88 °C.
In turn, `CN(C)c1cccc(OC(=O)NC2C(=O)N(CCC3C4CC5CC(C4)CC3C5)c3ccccc3N(c3ccccc3)C2=O)c1` (stereo not given) showed a melting point of 188 to 189 °C.
`Cc1cccc(C)c1NCc1nnc(S)n1C`: the melting point lay in the range of 172 to 173 °C.
As for `CC[C@H](C)C(OCc1ccccc1F)[C@H]1[C@H]([N+](=O)[O-])[C@H](c2ccsc2)N[C@@H]1C(=O)NCCC(=O)O` (stereo not given in full), the melting point fell in the range of 113 to 114 °C.
For the compound `NS(=O)(=O)c1nnc(NC(=O)c2ccccc2O)s1`, the melting point was above 250 °C.
Turning to `O=C(NCC(F)(F)F)c1cc(Cl)cc(Cl)c1`, the melting point lay within 145 to 147 °C.
`CCOC(=O)c1ncc2[nH]c3ccc(P(=O)(CC)CC)cc3c2n1` had a melting point of 195 to 197 °C.
Take `CCCc1nc(OC)c(NC(=O)N2CCN(c3cccc(O)c3)CC2)cc1C`: the melting point fell in the range of 153 to 155 °C.
Turning to `O=C1NCC(CCc2ccccc2)O1` (stereo not given), the melting point was in the range of 82 to 83 °C.
In the case of `O=C1Cc2ccccc2N1Nc1ccncc1F` it was 181 to 183 °C; in that of `NC(=O)c1cnc(Oc2ccc(C3OCCO3)cc2F)cn1`, 169 to 172 °C; in that of `O=C(NCC1CCN(C(c2ccccc2)c2ccccc2)CC1)c1cc(F)ccc1[N+](=O)[O-]`, 164 to 166 °C.
In the case of `CCCCNC(=O)Oc1cccc(NC(=O)NC2CC2)c1` it was 154 °C.
`COc1ccc(C2CCOCC2)c2sc(NC(=O)c3ccnc(CN4CCOCC4)c3)nc12` returned a melting point of 199 to 201 °C.
Consider `NC(=O)N1c2ccccc2C=C(Br)c2ccccc21`, for which the melting point lay in the range of 168 to 170 °C.
For `COc1ccc(CNN2C(=O)CC(C)c3cnc(SC)nc32)cc1Cl` (stereo not given), the melting point fell in the range of 118 to 120 °C.
With `O=C(O)CP(=O)(O)C[C@H](Cc1ccccc1)NC(=O)c1ccccc1` the figure was 105 to 107 °C; with `Cc1cc(-c2ccc3c(=O)c(C(=O)O)cn(C4CC4)c3c2C)cnc1CO`, 225 to 226 °C.
With `COC(=O)c1ccc(Cn2ncc3ccc(N)cc32)cc1` the figure was 131 to 132 °C.

These data come from a melting point compilation (Tetko et al.; mined from patent text by program, amines drawn as free bases though some values may be those of a salt).
